In publication PMC8162404, “Proteomimetic surface fragments distinguish targets by function” (Chemical Science, 2020):

Tests used:
[1] = target: T1, RecQ-WH (Escherichia coli, UniProt P15043); assay: Competition pull-down with native ligand SSB-Ct8; assay type: binding, E. coli; conditions: H14 library; competitor peptide 200 µM; read-out: Surface mapping KD (apparent), competition
T1 construct: coding for residues 408– 523 of E. coli RecQ; made in house; host or cells: E. coli BL21(DE3)

[2] = target: T2, CaM (Bos taurus, UniProt P62157); assay: Pull-down assay with immobilized protein and LSM libraries; assay type: binding, bovine; conditions: H14 library; 1:2 stoichiometry assumed; read-out: Surface mapping KD (apparent)
T2 construct: made in house; host or cells: E. coli BL21 (DE3)
In short: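 His-tagged protein immobilized on Co-NTA resin, equilibrated 30 min at room temperature with LSM sublibraries (64 members, […]), equimolar protein to total probe. CaM buffer: 20 mM HEPES pH 7.4, 150 mM NaCl, 5 mM CaCl2. Bound fractions from HPLC-MS loss of unbound probe versus protein-free resin control; Kd derived.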

[3] = target: T1, RecQ-WH; assay: as above; set-up: species or system E. coli; conditions: H14 library; 1:1 binding assumed; read-out: Surface mapping KD (apparent)
In short: (§1)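 His-tagged protein immobilized on Co-NTA resin (64 µM) in 20 mM HEPES pH 7.4, 150 mM NaCl, equilibrated 30 min at room temperature with foldamer LSM sublibraries at equimolar total concentration. Unbound fractions quantified by HPLC-MS versus protein-free resin control; apparent KD assumes 1:1 binding.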

[4] = target: T3, S100B (Homo sapiens, UniProt P04271); assay: Competition pull-down with native ligand RSK1 (689–735); assay type: binding; conditions: H14 library; competitor peptide 200 µM; read-out: Surface mapping KD (apparent), competition
T3 construct: made in house; host or cells: Escherichia coli BL21(DE3)
T3 sequence (P04271 1-92): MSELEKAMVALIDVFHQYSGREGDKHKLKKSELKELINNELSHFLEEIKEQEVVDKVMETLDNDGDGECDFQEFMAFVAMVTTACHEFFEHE

[5] = target: T4, Gal-1 (Homo sapiens, UniProt P09382); assay: Competition pull-down with lactose; assay type: binding; conditions: H14 library; lactose 10 mM; read-out: Surface mapping KD (apparent), competition
T4 construct: made in house; host or cells: E. coli BL21(DE3)
T4 sequence (P09382 whole entry): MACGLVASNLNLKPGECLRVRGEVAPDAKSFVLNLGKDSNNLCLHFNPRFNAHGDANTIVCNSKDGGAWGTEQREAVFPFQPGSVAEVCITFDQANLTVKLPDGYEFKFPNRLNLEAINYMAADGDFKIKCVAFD
In short: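 His6-tagged proteins immobilized on Co-NTA resin at 64 µM final with 64-member LSM foldamer sublibraries (1 M each, as printed) in pH 7.4 HEPES/NaCl buffers (Ca2+/TCEP per target), 30 min RT; competitor peptides 200 µM final, lactose 10 mM for Gal-1. Bound fractions from LC-MS loss vs protein-free resin; KD assuming 1:1 binding.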

[6] = target: T2, CaM; assay: Competition pull-down with native ligand TRPV1-Ct15; assay type: binding, bovine; conditions: H14 library; competitor peptide 200 µM; read-out: Surface mapping KD (apparent), competition
[7] = target: T4, Gal-1; assay: Pull-down assay with immobilized protein and LSM libraries; assay type: binding; conditions: H14 library; 1:1 binding assumed; read-out: Surface mapping KD (apparent)
In short: as §1

[8] = target: T5, S100A4 (Homo sapiens, UniProt P26447); assay: as above; assay type: binding; conditions: for Kd: H14 library, 1:1 binding assumed, read-out: Surface mapping KD (apparent)
T5 construct: made in house; host or cells: Escherichia coli BL21(DE3)
T5 sequence (P26447 whole entry): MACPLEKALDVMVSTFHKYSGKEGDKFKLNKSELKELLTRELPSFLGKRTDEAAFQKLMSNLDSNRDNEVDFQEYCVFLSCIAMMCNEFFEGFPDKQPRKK
In short: (§2)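 Buffers were HEPES pH 7.4 with 150 mM NaCl, plus 1 mM TCEP and 1 mM CaCl2 (50 mM HEPES) for S100A4 and S100B, 1 mM TCEP for Gal-1, and no additive for RecQ-WH. Immobilized protein at 64 µM was equilibrated 30 min with the LSM sublibrary, and unbound probes were measured by LC-MS.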

[9] = target: T3, S100B; assay: as above; assay type: binding; conditions: for Kd: H14 library, 1:1 binding assumed, read-out: Surface mapping KD (apparent)
In short: as §2

[10] = H14 probes selected for validation

T1 sequence (P15043 408-523): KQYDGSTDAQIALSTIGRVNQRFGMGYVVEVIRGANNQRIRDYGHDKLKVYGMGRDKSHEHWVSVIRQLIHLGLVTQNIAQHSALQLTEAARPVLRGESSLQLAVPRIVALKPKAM

SMILES | Kd [1] | Kd [2] | Kd [3] | Kd [4] | Kd [5] | Kd [6] | Kd [7] | Kd [8] | Kd [9] | Affinity class of probe (high, medium, low) in pull-down [8, 10] | Affinity class of probe (high, medium, low) in pull-down [9, 10]
NC(=O)[C@H]1CCCC[C@@H]1NC(=O)C[C@H](CC(=O)O)NC(=O)[C@H]1CCCC[C@@H]1NC(=O)[C@H]1CCCC[C@@H]1NC(=O)C[C@H](Cc1c[nH]c2ccccc12)NC(=O)[C@H]1CCCC[C@@H]1N [H14 WD] | 479 µM | 308 µM | 145 µM | – | – | – | – | – | – | – | –
CC(C)[C@@H](CC(=O)N[C@H]1CCCC[C@@H]1C(N)=O)NC(=O)[C@H]1CCCC[C@@H]1NC(=O)[C@H]1CCCC[C@@H]1NC(=O)C[C@H](Cc1c[nH]c2ccccc12)NC(=O)[C@H]1CCCC[C@@H]1N [H14 WV] | 268 µM | 2 µM | 102 µM | 116 µM | 224 µM | 85 µM | 143 µM | 13 µM | 16 µM | – | –
NC(=O)[C@H]1CCCC[C@@H]1NC(=O)C[C@H](Cc1ccccc1)NC(=O)[C@H]1CCCC[C@@H]1NC(=O)[C@H]1CCCC[C@@H]1NC(=O)C[C@H](Cc1ccc(O)cc1)NC(=O)[C@H]1CCCC[C@@H]1N [H14 YF] | 400 µM | 2 µM | 84 µM | 149 µM | 234 µM | 119 µM | 162 µM | 25 µM | 34 µM | medium | medium
CC(C)[C@@H](CC(=O)N[C@H]1CCCC[C@@H]1C(=O)N[C@H]1CCCC[C@@H]1C(=O)N[C@H](CC(=O)N[C@H]1CCCC[C@@H]1C(N)=O)Cc1c[nH]c2ccccc12)NC(=O)[C@H]1CCCC[C@@H]1N [H14 VW] | 452 µM | 13 µM | 221 µM | 60 µM | 211 µM | 153 µM | 98 µM | 11 µM | 16 µM | – | –
NC(=O)[C@H]1CCCC[C@@H]1NC(=O)C[C@H](Cc1ccccc1)NC(=O)[C@H]1CCCC[C@@H]1NC(=O)[C@H]1CCCC[C@@H]1NC(=O)C[C@H](Cc1ccccc1)NC(=O)[C@H]1CCCC[C@@H]1N [H14 FF] | 312 µM | 1.2 µM | 134 µM | 180 µM | 108 µM | 47 µM | 75 µM | 12 µM | 16 µM | – | –
CC(C)[C@@H](CC(=O)N[C@H]1CCCC[C@@H]1C(N)=O)NC(=O)[C@H]1CCCC[C@@H]1NC(=O)[C@H]1CCCC[C@@H]1NC(=O)C[C@H](Cc1ccc(O)cc1)NC(=O)[C@H]1CCCC[C@@H]1N [H14 YV] | 472 µM | 2 µM | 212 µM | 372 µM | 223 µM | 448 µM | 140 µM | 23 µM | 112 µM | – | –
C[C@@H](CC(=O)N[C@H]1CCCC[C@@H]1C(=O)N[C@H]1CCCC[C@@H]1C(=O)N[C@H](CC(=O)N[C@H]1CCCC[C@@H]1C(N)=O)Cc1ccccc1)NC(=O)[C@H]1CCCC[C@@H]1N [H14 AF] | 454 µM | 5 µM | 483 µM | 354 µM | 333 µM | – | 121 µM | 13 µM | 45 µM | – | –
NC(=O)[C@H]1CCCC[C@@H]1NC(=O)C[C@H](Cc1ccccc1)NC(=O)[C@H]1CCCC[C@@H]1NC(=O)[C@H]1CCCC[C@@H]1NC(=O)C[C@H](Cc1c[nH]c2ccccc12)NC(=O)[C@H]1CCCC[C@@H]1N [H14 WF] | 106 µM | 4 µM | 62 µM | 177 µM | 59 µM | 29 µM | 38 µM | 10 µM | 14 µM | – | –
NC(=O)[C@H]1CCCC[C@@H]1NC(=O)C[C@H](Cc1ccc(O)cc1)NC(=O)[C@H]1CCCC[C@@H]1NC(=O)[C@H]1CCCC[C@@H]1NC(=O)C[C@H](Cc1ccccc1)NC(=O)[C@H]1CCCC[C@@H]1N [H14 FY] | 231 µM | 3 µM | 92 µM | 146 µM | 395 µM | – | 214 µM | 57 µM | 96 µM | – | –
NCCCC[C@@H](CC(=O)N[C@H]1CCCC[C@@H]1C(N)=O)NC(=O)[C@H]1CCCC[C@@H]1NC(=O)[C@H]1CCCC[C@@H]1NC(=O)C[C@H](Cc1c[nH]c2ccccc12)NC(=O)[C@H]1CCCC[C@@H]1N [H14 WK] | – | 1.1 µM | 287 µM | 412 µM | 252 µM | 201 µM | 262 µM | 136 µM | 40 µM | – | –
NC(=O)[C@H]1CCCC[C@@H]1NC(=O)C[C@H](Cc1ccc(O)cc1)NC(=O)[C@H]1CCCC[C@@H]1NC(=O)[C@H]1CCCC[C@@H]1NC(=O)C[C@H](Cc1ccc(O)cc1)NC(=O)[C@H]1CCCC[C@@H]1N [H14 YY] | 298 µM | 7 µM | 114 µM | 393 µM | – | – | 375 µM | 70 µM | 121 µM | – | –
CSCC[C@@H](CC(=O)N[C@H]1CCCC[C@@H]1C(=O)N[C@H]1CCCC[C@@H]1C(=O)N[C@H](CC(=O)N[C@H]1CCCC[C@@H]1C(N)=O)Cc1ccccc1)NC(=O)[C@H]1CCCC[C@@H]1N [H14 MF] | – | 2 µM | 304 µM | 316 µM | 181 µM | 133 µM | 223 µM | 23 µM | 85 µM | – | –
C[C@@H](O)[C@@H](CC(=O)N[C@H]1CCCC[C@@H]1C(=O)N[C@H]1CCCC[C@@H]1C(=O)N[C@H](CC(=O)N[C@H]1CCCC[C@@H]1C(N)=O)Cc1ccccc1)NC(=O)[C@H]1CCCC[C@@H]1N [H14 TF] | – | 163 µM | 407 µM | 294 µM | 220 µM | 94 µM | 140 µM | 43 µM | 44 µM | – | –
NC(=O)[C@H]1CCCC[C@@H]1NC(=O)C[C@H](Cc1c[nH]c2ccccc12)NC(=O)[C@H]1CCCC[C@@H]1NC(=O)[C@H]1CCCC[C@@H]1NC(=O)C[C@H](CO)NC(=O)[C@H]1CCCC[C@@H]1N [H14 SW] | 265 µM | 23 µM | 73 µM | 458 µM | 177 µM | – | 151 µM | 179 µM | 79 µM | – | –
CSCC[C@@H](CC(=O)N[C@H]1CCCC[C@@H]1C(N)=O)NC(=O)[C@H]1CCCC[C@@H]1NC(=O)[C@H]1CCCC[C@@H]1NC(=O)C[C@H](Cc1ccccc1)NC(=O)[C@H]1CCCC[C@@H]1N [H14 FM] | 454 µM | 2 µM | 225 µM | 352 µM | 250 µM | 109 µM | 284 µM | 22 µM | 19 µM | – | –
CSCC[C@@H](CC(=O)N[C@H]1CCCC[C@@H]1C(N)=O)NC(=O)[C@H]1CCCC[C@@H]1NC(=O)[C@H]1CCCC[C@@H]1NC(=O)C[C@H](Cc1c[nH]c2ccccc12)NC(=O)[C@H]1CCCC[C@@H]1N [H14 WM] | 188 µM | 1.4 µM | 81 µM | 125 µM | 305 µM | 251 µM | 145 µM | 43 µM | 45 µM | – | –
NC(=O)CC[C@@H](CC(=O)N[C@H]1CCCC[C@@H]1C(=O)N[C@H]1CCCC[C@@H]1C(=O)N[C@H](CC(=O)N[C@H]1CCCC[C@@H]1C(N)=O)Cc1c[nH]c2ccccc12)NC(=O)[C@H]1CCCC[C@@H]1N [H14 QW] | 341 µM | 27 µM | 143 µM | 473 µM | 183 µM | 168 µM | 169 µM | – | 79 µM | – | –
NC(=O)[C@H]1CCCC[C@@H]1NC(=O)C[C@H](CO)NC(=O)[C@H]1CCCC[C@@H]1NC(=O)[C@H]1CCCC[C@@H]1NC(=O)C[C@H](Cc1c[nH]c2ccccc12)NC(=O)[C@H]1CCCC[C@@H]1N [H14 WS] | 352 µM | 9 µM | 209 µM | 434 µM | – | 307 µM | 467 µM | 176 µM | 138 µM | – | –
